Experiments:
[1] = test system: lipase in the small intestines; details: background statement; cited from earlier work
p-CREB = test: Expression of p-CREB in the hypothalamus by Western blotting; format: in vivo, rat; details: oral anthocyanin 24 mg, 40 days, versus control; Western blot
neuropeptide Y = test: Expression of neuropeptide Y in the hypothalamus by Western blotting; format: in vivo, rat; details: oral anthocyanin 24 mg, 40 days, versus control; Western blot
PKA-α = test: Expression of PKA-α in the hypothalamus by Western blotting; format: in vivo, rat; details: oral anthocyanin 24 mg, 40 days, versus control; Western blot
[2] = test system: epididymal white adipose tissue; test: Epididymal white adipose tissue adipocyte number per unit area (hematoxylin-eosin staining); format: in vivo, rat; details: epididymal WAT, 40 days, control 18.75
Description: For hematoxylin-eosin staining, an epididymal white adipose tissue (WAT) was fixed at 4° C. for 72 hrs in ice-chilled 1× PBS containing 4% para-formaldehyde, and immersed at 4° C. for 72 hrs in 20% sucrose sucrose phosphate buffer for cryoprotection. The fixed tissue was frozen with O.C.T compound (A. O. USA), and 10 μm coronal sections were made in coronal planes (Leica cryostat CM 3050, Germany). The sections were mounted on a probe-on, positively charged slide at room temperature and stored at −70° C. until use.
The animals bred as in Example 1 were collectively sacrificed at 10:00 AM 40 days after the oral administration, and epididymal white adipose tissue (WAT) was excised from each sacrificed animal and used for comparison of obesity. The epididymal WAT was fixed at 4° C. for 72 hrs in ice-chilled 1× PBS containing 4% para-formaldehyde, and immersed at 4° C. for 72 hrs in a 20% sucrose phosphate buffer for cryoprotection. The fixed tissue was frozen with O.C.T compound (A. O. USA), and 10 μm coronal sections were made in coronal planes (Leica cryostat CM 3050, Germany). The sections were mounted on probe-on, positively charged slides and thawed at room temperature for 3 hrs. […] Cover slips were mounted on the slides which were observed under a […] at 400× magnification.

GABAB receptor = test: Expression of GABAB receptor in the hypothalamus by Western blotting; format: in vivo, rat; details: rats administered anthocyanin orally, 40 days, versus control; Western blot densitometry
Description: To examine the effect of an obesity prevention and treatment agent on the expression of GABAB receptor, the animals maintained as in Example 1 were collectively sacrificed at 10:00 AM 40 days after the oral administration, and the hypothalamus was excised from each of them. The hypothalamic sample was homogenized in 0.2 M PBS containing a protease inhibitor cocktail. Protein levels were measured using a Bio-Rad protein analysis solution, and after two rounds of ultracentrifugation at 4° C. and 12,000 rpm for 20 min, the supernatants containing proteins were separated. […] This membrane was blocked with 5% (v/v) skim milk to reduce non-specific binding, and incubated with a primary goat anti-GABABR1 antibody (1:200; Santa Cruz Biotechnology, Santa Cruz, Calif., USA) and an anti-beta-actin antibody for quantitative comparison, followed by immune reaction with a secondary HRP (horseradish peroxidase)-conjugated anti-goat and anti-rabbit IgG (1:1000; Santa Cruz Biotechnology, Santa Cruz, Calif., USA). Protein levels were determined by chemiluminescence using ECL-detecting reagent (Amersham Pharmacia Biotech, Western blotting detection reagents). Western blots on the X-ray film were analyzed by densitometry using computer-based Sigma Gel (SPSS Inc. Chicago, USA), and the results are shown in FIG. 3.

[3] = Body weight change and daily food uptake in rats orally administered anthocyanin for 40 days; format: in vivo, rat; details: for weight increase: male Sprague-Dawley rats, control 79.33 g; for weight increase / weight at end of period: 40 days; for weight at end of period: control 116.33 g
Description: For use in assay for the preventive and therapeutic effect of anthocyanin on obesity, male Sprague-Dawley rats, 60 days old (the Experimental Animal Breeding Center of the Gyeongsang National University, Jinju, Korea)) were divided groups of four which were then orally administered with anthocyanin at a dose of 6 mg and 24 mg, respectively, or not administered with anthocyanin for a control. They were maintained for 40 days in a temperature-controlled condition with lighting 06:00-20:00. While being maintained, the rats in each group were monitored for weight change and daily food uptake, and the results are shown in FIG. 1.

Molecule	reduction of fat absorption [1]	expression level of p-CREB in the hypothalamus (p-CREB)	expression level of neuropeptide Y in the hypothalamus (neuropeptide Y)	expression level of PKA-α in the hypothalamus (PKA-α)	number of adipocytes per unit area ([2]; oral anthocyanin 6 mg)	number of adipocytes per unit area ([2]; oral anthocyanin 24 mg)	expression level of GABAB receptor in the hypothalamus (GABAB receptor)	weight increase ([3]; oral anthocyanin 6 mg)	weight increase ([3]; oral anthocyanin 24 mg)	weight at end of period ([3]; oral anthocyanin 6 mg, from 32.33 g)	weight at end of period ([3]; oral anthocyanin 24 mg, from 28.33 g)	daily food uptake ([3]; oral anthocyanin 24 mg, control 20.03 g)
CCCCCCCCCCC[C@@H](C[C@@H]1OC(=O)[C@H]1CCCCCC)OC(=O)[C@H](CC(C)C)NC=O [Orlistat]	about 30%	–	–	–	–	–	–	–	–	–	–	–
anthocyanin	–	increase	decreased	decrease	22.47 cells/250 mm^2	22.8 cells/250 mm^2	increased	69 g	69.67 g	101.33 g	98 g	16.43 g
